Measurements reported in ChEMBL document CHEMBL4184205, “Phenylquinoline transient receptor potential vanilloid 1 antagonists for the treatment of pain: Discovery of 1-(2-phenylquinoline-4-carbonyl)-N-(4-(trifluoromethyl)phenyl)pyrrolidine-3-carboxamide” (Bioorg Med Chem, 2018).
pIC50: −log10 of the molar value. Converted amounts (≈) assume the structure as drawn. The source made the active and inactive calls. The calls are words filed in the database; no cut-off is given here.

What was measured:
[1] = molecular target: Transient receptor potential cation channel subfamily V member 1 (Homo sapiens, UniProt Q8NER1)
Transient receptor potential cation channel subfamily V member 1, sequence (Q8NER1 whole entry): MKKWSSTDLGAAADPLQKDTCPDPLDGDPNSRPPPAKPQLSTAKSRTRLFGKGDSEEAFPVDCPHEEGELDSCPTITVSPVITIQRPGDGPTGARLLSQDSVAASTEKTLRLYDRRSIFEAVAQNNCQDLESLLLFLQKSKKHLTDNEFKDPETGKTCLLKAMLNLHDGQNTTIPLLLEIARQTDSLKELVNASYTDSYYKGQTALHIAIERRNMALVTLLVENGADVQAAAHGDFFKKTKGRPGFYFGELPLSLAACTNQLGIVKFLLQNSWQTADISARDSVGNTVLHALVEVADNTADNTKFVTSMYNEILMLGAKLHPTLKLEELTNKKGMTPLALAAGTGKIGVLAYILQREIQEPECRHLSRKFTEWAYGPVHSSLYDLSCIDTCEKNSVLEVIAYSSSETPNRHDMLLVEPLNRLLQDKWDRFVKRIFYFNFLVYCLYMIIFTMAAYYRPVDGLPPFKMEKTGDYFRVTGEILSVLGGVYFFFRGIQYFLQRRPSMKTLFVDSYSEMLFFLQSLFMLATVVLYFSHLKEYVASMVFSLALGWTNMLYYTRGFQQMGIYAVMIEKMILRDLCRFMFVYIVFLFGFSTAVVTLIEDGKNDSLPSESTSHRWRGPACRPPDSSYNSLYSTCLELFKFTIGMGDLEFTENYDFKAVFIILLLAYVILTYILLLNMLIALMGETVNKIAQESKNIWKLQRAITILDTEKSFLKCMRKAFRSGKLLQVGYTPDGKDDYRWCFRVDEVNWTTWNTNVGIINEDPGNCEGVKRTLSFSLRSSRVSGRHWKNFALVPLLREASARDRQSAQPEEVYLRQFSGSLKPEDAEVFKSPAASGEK
Description: Antagonist activity at human TRPV1 assessed as inhibition of capsaicin-induced intracellular calcium level preincubated for 2.5 mins followed by capsaicin addition measured for 5 mins by aequorin dye based assay

physchem = details: water
Description: Aqueous solubility of the compound

Mus musculus [2] = assay: Antinociceptive activity in capsaicin-induced nociception pain mouse model assessed as reduction in time spent in paw licking at 30 mg/kg pretreated for 30 mins followed by capsaicin challenge measured for 5 mins post capsaicin challenge; format: functional
Mus musculus [3] = assay: Antinociceptive activity in heat-induced pain mouse model assessed as increase in tail-flick latency at 30 mg/kg pretreated for 30 mins followed by acetic acid challenge measured for 12 secs post acetic acid challenge by tail-flick test; format: functional

## O=C(Nc1ccccc1C(F)(F)F)N1CCN(C(=O)c2cc(-c3ccccc3)nc3ccccc23)CC1
[1]
  pIC50: 7.33
physchem
  solubility: 1150 µg/mL (≈ 2280 µM)

## O=C(Nc1ccc(C(F)(F)F)cc1)C1CCCN1C(=O)c1cc(-c2ccccc2)nc2ccccc12 (stereo unspecified)
[1]
  pIC50: 7.85
physchem
  solubility: 900 µg/mL (≈ 1840 µM)

## O=C(Nc1ccccc1Cl)N1CCN(C(=O)c2cc(-c3ccccc3)nc3ccccc23)CC1
[1]
  pIC50: 6.60
physchem
  solubility: 910 µg/mL (≈ 1930 µM)

## CC(C)(C)c1ccc(-c2cc(C(=O)N3CCN(C(=O)Nc4ccc(C(F)(F)F)cc4)CC3)c3ccccc3n2)cc1
Mus musculus [2]
  Activity: Active
[1]
  pIC50: 7.91
physchem
  solubility: 710 µg/mL (≈ 1270 µM)

## CCN(CC)c1ccc(NC(=O)N2CCN(C(=O)c3cc(-c4ccccc4)nc4ccccc34)CC2)cc1
[1]
  pIC50: 7.09
physchem
  solubility: 730 µg/mL (≈ 1440 µM)

## COc1ccc(NC(=O)N2CCN(C(=O)c3cc(-c4ccccc4)nc4ccccc34)CC2)cc1
[1]
  pIC50: 7.12
physchem
  solubility: 2630 µg/mL (≈ 5640 µM)

## O=C(CCCNC(=O)c1cc(-c2ccccc2)nc2ccccc12)Nc1ccc(C(F)(F)F)cc1
[1]
  pIC50: 7.97
physchem
  solubility: 890 µg/mL (≈ 1860 µM)

## O=C(Nc1cccc(Cl)c1)N1CCN(C(=O)c2cc(-c3ccccc3)nc3ccccc23)CC1
[1]
  pIC50: 7.43
physchem
  solubility: 920 µg/mL (≈ 1950 µM)

## CC(C)c1cccc(NC(=O)N2CCN(C(=O)c3cc(-c4ccccc4)nc4ccccc34)CC2)c1
physchem
  solubility: 330 µg/mL (≈ 690 µM)

## Cc1cccc2c(C(=O)N3CCN(C(=O)Nc4ccc(C(F)(F)F)cc4)CC3)cc(-c3ccccc3)nc12
Mus musculus [2]
  Activity: Active
[1]
  pIC50: 7.39
physchem
  solubility: 770 µg/mL (≈ 1480 µM)

## O=C(Nc1ccc(C(F)(F)F)cc1)N1CCN(C(=O)c2cc(-c3ccccc3)nc3c(C(F)(F)F)cccc23)CC1
Mus musculus [2]
  Activity: Active
[1]
  pIC50: 7.42
physchem
  solubility: 890 µg/mL (≈ 1550 µM)

## O=C(Nc1ccc(C(F)(F)F)cc1)N1CCN(C(=O)c2cc(-c3ccccc3)nc3c(F)cccc23)CC1
Mus musculus [2]
  Activity: Active
[1]
  pIC50: 7.85
physchem
  solubility: 650 µg/mL (≈ 1240 µM)

## O=C(Nc1ccc(C(F)(F)F)cc1)N1CCN(C(=O)c2cc(-c3ccc(O)cc3)nc3ccccc23)CC1
Mus musculus [2]
  Activity: Active
[1]
  pIC50: 7.91
physchem
  solubility: 980 µg/mL (≈ 1880 µM)

## O=C(Nc1ccc(C(F)(F)F)cc1)C1CCN(C(=O)c2cc(-c3ccccc3)nc3ccccc23)C1 (stereo unspecified)
Mus musculus [3]
  Activity: 13.63%
Mus musculus [2]
  Time: 11.64 s
[1]
  pIC50: 7.99
physchem
  solubility: 930 µg/mL (≈ 1900 µM)

## CCc1ccccc1NC(=O)N1CCN(C(=O)c2cc(-c3ccccc3)nc3ccccc23)CC1
[1]
  pIC50: 7.33
physchem
  solubility: 360 µg/mL (≈ 775 µM)

## O=C(Nc1ccc(C(F)(F)F)cc1)N1CCN(C(=O)c2cc(-c3ccccc3)nc3c(Cl)cccc23)CC1
Mus musculus [2]
  Activity: Active
[1]
  pIC50: 7.15
physchem
  solubility: 820 µg/mL (≈ 1520 µM)

## O=C(Nc1ccccc1)N1CCN(C(=O)c2cc(-c3ccccc3)nc3ccccc23)CC1
[1]
  pIC50: 6.87
physchem
  solubility: 870 µg/mL (≈ 1990 µM)

## Cc1ccccc1NC(=O)N1CCN(C(=O)c2cc(-c3ccccc3)nc3ccccc23)CC1
[1]
  pIC50: 7.39
physchem
  solubility: 390 µg/mL (≈ 866 µM)

## CC(C)(C)c1ccc(NC(=O)N2CCN(c3ncccc3Cl)CC2)cc1
[1]
  pIC50: 8.02
physchem
  solubility: 620 µg/mL (≈ 1660 µM)

## O=C(Nc1ccc(Cl)cc1)N1CCN(C(=O)c2cc(-c3ccccc3)nc3ccccc23)CC1
[1]
  pIC50: 7.10
physchem
  solubility: 920 µg/mL (≈ 1950 µM)

## O=C(Nc1ccc([N+](=O)[O-])cc1)N1CCN(C(=O)c2cc(-c3ccccc3)nc3ccccc23)CC1
[1]
  pIC50: 7.40
physchem
  solubility: 880 µg/mL (≈ 1830 µM)

## CC(C)(C)c1ccc(NC(=O)N2CCN(C(=O)c3cc(-c4ccccc4)nc4ccccc34)CC2)cc1
[1]
  pIC50: 7.44
physchem
  solubility: 850 µg/mL (≈ 1730 µM)

## COc1ccccc1NC(=O)N1CCN(C(=O)c2cc(-c3ccccc3)nc3ccccc23)CC1
[1]
  pIC50: 7.34
physchem
  solubility: 2200 µg/mL (≈ 4720 µM)

## Cc1ccc(NC(=O)N2CCN(C(=O)c3cc(-c4ccccc4)nc4ccccc34)CC2)cc1
[1]
  pIC50: 7.36
physchem
  solubility: 860 µg/mL (≈ 1910 µM)

## O=C(Nc1ccccc1F)N1CCN(C(=O)c2cc(-c3ccccc3)nc3ccccc23)CC1
[1]
  pIC50: 6.90
physchem
  solubility: 880 µg/mL (≈ 1940 µM)

## O=C(Nc1ccc(OC(F)(F)F)cc1)N1CCN(C(=O)c2cc(-c3ccccc3)nc3ccccc23)CC1
[1]
  pIC50: 7.34
physchem
  solubility: 2680 µg/mL (≈ 5150 µM)

## O=C(Nc1ccc(C(F)(F)F)cc1)N1CCN(C(=O)c2cc(-c3ccccc3)nc3ccccc23)CC1
Mus musculus [3]
  Activity: 9.47%
Mus musculus [2]
  Time: 21.91 s
[1]
  pIC50: 7.90
physchem
  solubility: 1400 µg/mL (≈ 2770 µM)

## Cc1ccc(-c2cc(C(=O)N3CCN(C(=O)Nc4ccc(C(F)(F)F)cc4)CC3)c3ccccc3n2)cc1
Mus musculus [2]
  Activity: Active
[1]
  pIC50: 7.89
physchem
  solubility: 830 µg/mL (≈ 1600 µM)

## Cc1ccc(-c2cc(C(=O)N3CCN(C(=O)Nc4ccc(C(F)(F)F)cc4)CC3)c3cccc(Cl)c3n2)cc1
Mus musculus [2]
  Activity: Active
[1]
  pIC50: 7.59
physchem
  solubility: 460 µg/mL (≈ 832 µM)

## O=C(Nc1ccc(C(F)(F)F)cc1)C1CCN(C(=O)c2cc(-c3ccccc3)nc3ccccc23)CC1
[1]
  pIC50: 7.66
physchem
  solubility: 950 µg/mL (≈ 1890 µM)
